In patent US20260275292A1, “MATURATION MEDIUM COMPOSITIONS AND METHODS FOR HUMAN HEART ORGANOID MATURATION” (Board of Trustees of Michigan State University, priority 2022, published 2026):
Counter-ions that a name gives are not always drawn. Blank lines part the entries; values can stand above or below the molecule they belong to.

Columns and labels:
[1] = test system: human heart organoids; experiment: Immunofluorescence, confocal microscopy and image analysis; type: cell-based
Description: Immunofluorescence. Human heart organoids were transferred from the round bottom ultra-low attachment 96 well plate to 1.5 mL microcentrifuge tubes (Eppendorf) using a cut 200 μL pipette tip (to increase tip bore diameter as to not disturb the organoid). Organoids were fixed in 4% paraformaldehyde (VWR) in PBS for 30 minutes. Following, organoids were washed using PBS-Glycine (1.5 g/L) three times for 5 minutes each. Organoids were then blocked and permeabilized using a solution containing 10% Donkey Normal Serum (Sigma), 0.5% Triton X-100 (Sigma), and 0.5% BSA (Thermo Fisher Scientific) in PBS on a thermal mixer at 300 rpm at 4° C. overnight. Organoids were then washed 3 times using PBS and incubated with primary antibodies (Table 4) within a solution containing 1% Donkey Normal Serum, 0.5% Triton X-100, and 0.5% BSA in PBS (hereafter termed “Antibody Solution”) on a thermal mixer at 300 rpm at 4° C. for 24 hours.
Following, organoids were washed 3 times for 5 minutes each using PBS. Organoids were then incubated with secondary antibodies (Table 4) in Antibody Solution on a thermal mixer at 300 rpm at 4° C. for 24 hours in the dark. Subsequently, organoids were washed 3 times for 5 minutes each using PBS and mounted on glass microscope slides (Fisher Scientific). 90 μm Polybead Microspheres (Polyscience, Inc.) were placed between the slide and a No. 1.5 coverslip (VWR) to provide support pillars such that the organoids could retain three dimensionality. Organoids were transferred to the glass microscope slides using a cut 200 uL pipette tip and mounted using a clearing solution described previously^153. T-tubule staining was performed using FITC-conjugated Wheat Germ Agglutinin (WGA) lectins (Sigma).
Confocal Microscopy and Image Analysis. […] Images were analyzed using Fiji. […] Thresholds were generated for the equalized image intensity values.
(§1) Ondansetron treatment. Ondansetron hydrochloride (Sigma) was prepared at 200 μM in DMSO and was further diluted in DMEM/F12 ((Dulbecco's Modified Eagle Medium/Nutrient Mixture F-12) before being sterile filtered via a 0.22 μm PVDF filter (Sigma). Ondansetron was applied to heart organoids at final concentrations of 1 μM, 10 μM, and 100 μM in EMM2/1 medium, and was applied from Day 9 to Day 20 of culture. Organoids were collected on Day 30 for analysis.
DEAB and Retinoic Acid treatment. 4-Diethylaminobenzaldehyde (DEAB) (Sigma) was prepared at 1 M in DMSO, diluted further to 10 mM using DMSO, then finally diluted to 1 mM in DMEM/F12. Retinoic Acid (RA) (Sigma) was prepared at 1 M in DMSO, and diluted to 100 μM in DMEM/F12. Diluted solutions of DEAB and RA were sterile filtered via 0.22 μm PVDF filters (Sigma). […] DEAB, RA, and DEAB+RA were applied to heart organoids from Day 20 to Day 30 of culture using the EMM2/1 strategy. Organoids were collected on Day 30 for analysis.

[2] = test system: human heart organoids; experiment: FlipGFP (active caspase 3) apoptosis reporter fluorescence in heart organoids; details: 10 μM, 48 hours, Day 28 to Day 30, EMM2/1 organoids
[3] = test system: human heart organoids; experiment: Real time RT-PCR gene expression in heart organoids; type: cell-based; details: day 30, EMM2/1 organoids
Description: Real time RT-PCR. Organoids were collected at day 20, 21, 23, 25, and 30 and stored in RNAprotect (Qiagen) at −20° C. RNA was extracted using the Qiagen RNEasy Mini Kit according largely to the manufacturer's instructions. Organoids were lysed using the Bead Mill 4 Homogenizer (Fisher Scientific) at speed 2 for 30 seconds. RNA concentration was measured using a NanoDrop One (Thermo Fisher Scientific). A minimum threshold of […] was required to proceed with reverse transcription. cDNA was generated using the Quantitect Reverse Transcription Kit (Qiagen) and stored at −20° C. Primers for real time qPCR were designed using the Primer Quest tool (Integrated DNA Technologies). SYBR Green (Thermo Fisher Scientific) was used as the DNA intercalating dye and the amplifier for the reaction vessel. Real time qPCR was performed using the QuantStudio 5 Real-Time PCR system (Applied Biosystems) using a total reaction volume of 20 μL. Gene expression levels were normalized to HPRT1 expression in each independent sample. Log base 2 fold change values were obtained using the double delta CT method.

[4] = test system: human heart organoids; experiment: Voltage imaging with di-8-ANEPPS; type: cell-based; details: 10 and 100 μM conditions
Description: Voltage imaging. Voltage activity within human heart organoids was assessed using di-8-ANEPPS (Thermo Fisher Scientific). Di-8-ANEPPS was solubilized in DMSO per the manufacturer's instructions. A 15 μM solution of di-8-ANEPPS was prepared in respective medium (Control, MM, EMM1, etc.). Organoids were washed twice using RPMI 1640 basal medium, then di-8-ANEPPS was added at a final concentration of 10 μM and incubated for 30 minutes at 37° C. and 5% CO2. Organoids were then washed twice using their respective medium (Control, MM, EMM1, etc.) and transferred to a chambered coverglass slide (Cellvis) using a cut 200 μL pipette tip. Videos were acquired using a Cellvivo microscope (Olympus) at 100 frames per second over 10 total seconds as an image stack at either 20× magnification (ondansetron) or 100× magnification (maturation electrophysiology). Samples were excited at 465 nm excitation and 630 nm emission was collected. Data was processed using Fiji and Microsoft Excel. Baseline F0 of fluorescence intensity F was calculated using the average of the lowest 50 intensity values in the acquired dataset. Fluorescence change ΔF/F0 was calculated using the same method as with Calcium imaging presented above. APD30 and APD90 were measured from the midpoint of the upstroke until 30% or 90% repolarization, respectively^162.
as §1

[5] = test system: human heart organoids; experiment: Brightfield microscopy of organoid size and beating; type: cell-based
[6] = test system: human heart organoids
[7] = 10 μM, Day 20 to Day 30, EMM2/1 organoids

Compound: CCN(CC)c1ccc(C=O)cc1 [DEAB, 4-Diethylaminobenzaldehyde]
MYL3+ area relative to Untreated organoids [1, 7]: 0.35 fold | NR2F2+ area relative to Untreated organoids [1, 7]: 0.42 fold

Compound: COc1cccc2c1C(=O)c1c(O)c3c(c(O)c1C2=O)C[C@@](O)(C(=O)CO)C[C@@H]3O[C@H]1C[C@H](N)[C@H](O)[C@H](C)O1 [doxorubicin, Doxorubicin hydrochloride]
FlipGFP fluorescence (apoptosis), positive control [2]: high levels of fluorescence

MYL2 expression relative to Untreated ([3]; 10 μM): 0.58 fold | MYL2 expression relative to Untreated ([3]; 100 μM): 0.40 fold | APD30 compared to Untreated [4]: increased | APD90 compared to Untreated [4]: increased | action potential amplitude compared to Untreated [4]: decreased | action potential frequency compared to Untreated [4]: decreased frequencies | MYL2+ area relative to Untreated ([1]; 10 μM, day 9 until day 30, EMM2/1 organoids): 0.55 fold | MYL2+ area relative to Untreated ([1]; 100 μM, day 9 until day 30, EMM2/1 organoids): 0.18 fold | structural organization of organoids compared to Untreated ([1]; 100 μM, day 30, EMM2/1 organoids): structurally less organized | MYL7+ area ([1]; 1, 10 and 100 μM, day 9 until day 30, EMM2/1 organoids): remained unchanged | beating of heart organoids over time ([5]; 100 μM condition): most marked loss in cardiac activity | beating of heart organoids over time ([5]; day 0 to day 30, all concentrations): progressive loss of beating
Compound: Cc1nccn1CC1CCc2c(c3ccccc3n2C)C1=O (stereo not shown) [ondansetron, Ondansetron hydrochloride]
apoptosis (FlipGFP fluorescence) [6]: does not contribute to apoptosis
